In patent publication US20080255206A1, “Rxr Agonists and Antagonists, Alone or in Combination with Ppar Ligands, in the Treatment of Metabolic and Cardiovascular Diseases” (priority 2005, published 2008):

Tested on: db/db mice
Test: Investigation with db/db mice (blood glucose and lipids)
Type: in vivo, mouse
Conditions: for Glucose Diff. D o − D 12 / HDL-cholesterol Diff. D o − D 12 / Total cholesterol Diff. D o − D 12 / Triglycerides Diff. D o − D 12: change day 0 to day 12; for Glucose D o / HDL-cholesterol D o / Total cholesterol D o / Triglycerides D o: day 0; for Glucose D 12 / HDL-cholesterol D 12 / Total cholesterol D 12 / Triglycerides D 12: day 12; for Glucose D-4 / HDL-cholesterol D-4 / Total cholesterol D-4 / Triglycerides D-4: day −4
Description: The following compounds are investigated and compared to placebo (vehicle control).
The mentioned 3 compounds are tested in db/db mice during a time when diabetes is in a rapid developing stage. […] Each dosage group and the vehicle group comprise 7 mice. The suspensions used are prepared with peroxide free arachis oil as vehicle. Blood samples are collected by retro-orbital bleeding at days −4, 0 and 12. The blood levels of glucose, triglycerides, total cholesterol, and HDL-cholesterol are determined.
For evaluation of efficacy, the difference between the values of glucose, triglycerides, total cholesterol and HDL-cholesterol changing from day 0 to day 12 is determined and expressed in %. […] Overall evaluation consists in determining the efficacy of the compounds by calculating the whole extent of the effect expressed in %. […] This value is considered as a valuable indicator for the efficacy of the investigated compounds administered in a tolerated dose.

[1] = 30 mg/kg/day group versus vehicle group

CC1=C(/C=C/C2=C(/C=C/C(C)=C/C(=O)O)CCCCC2)C(C)(C)CCC1 [Compound 1, (2E,4E)-3-methyl-5-[2-[(E)-2-(2,6,6-trimethyl-1-cyclohexen-1-yl)ethenyl]-1-cyclohepten-1-yl]-2,4-pentadienoic acid]
Glucose Diff. D o − D 12 (0.3 mg/kg/day i.p.): +57.5% | HDL-cholesterol Diff. D o − D 12 (0.3 mg/kg/day i.p.): −3.2% | Total cholesterol Diff. D o − D 12 (0.3 mg/kg/day i.p.): −14.1% | Triglycerides Diff. D o − D 12 (0.3 mg/kg/day i.p.): +25.4% | Glucose D o (0.3 mg/kg/day i.p.): 207 mg/dL | HDL-cholesterol D o (0.3 mg/kg/day i.p.): 3.78 mmol/L | Total cholesterol D o (0.3 mg/kg/day i.p.): 4.27 mmol/L | Triglycerides D o (0.3 mg/kg/day i.p.): 1.73 mmol/L | Glucose D 12 (0.3 mg/kg/day i.p.): 326 mg/dL | HDL-cholesterol D 12 (0.3 mg/kg/day i.p.): 2.69 mmol/L | Total cholesterol D 12 (0.3 mg/kg/day i.p.): 3.67 mmol/L | Triglycerides D 12 (0.3 mg/kg/day i.p.): 2.17 mmol/L | Glucose D-4 (0.3 mg/kg/day i.p.): 138 mg/dL | HDL-cholesterol D-4 (0.3 mg/kg/day i.p.): 2.65 mmol/L | Total cholesterol D-4 (0.3 mg/kg/day i.p.): 4.26 mmol/L | Triglycerides D-4 (0.3 mg/kg/day i.p.): 1.83 mmol/L | Glucose levels (in words) (3 mg/kg/day): no significant change | HDL-cholesterol levels (in words) (3 mg/kg/day): not influenced | Triglyceride levels (in words) (3 mg/kg/day): hardly influenced | Glucose Diff. D o − D 12 (3.0 mg/kg/day i.p.): +40.7% | HDL-cholesterol Diff. D o − D 12 (3.0 mg/kg/day i.p.): −19.6% | Total cholesterol Diff. D o − D 12 (3.0 mg/kg/day i.p.): −19.9% | Triglycerides Diff. D o − D 12 (3.0 mg/kg/day i.p.): +15.3% | Glucose D o (3.0 mg/kg/day i.p.): 194 mg/dL | HDL-cholesterol D o (3.0 mg/kg/day i.p.): 3.37 mmol/L | Total cholesterol D o (3.0 mg/kg/day i.p.): 4.68 mmol/L | Triglycerides D o (3.0 mg/kg/day i.p.): 1.83 mmol/L | Glucose D 12 (3.0 mg/kg/day i.p.): 273 mg/dL | HDL-cholesterol D 12 (3.0 mg/kg/day i.p.): 2.71 mmol/L | Total cholesterol D 12 (3.0 mg/kg/day i.p.): 3.75 mmol/L | Triglycerides D 12 (3.0 mg/kg/day i.p.): 2.11 mmol/L | Glucose D-4 (3.0 mg/kg/day i.p.): 155 mg/dL | HDL-cholesterol D-4 (3.0 mg/kg/day i.p.): 2.53 mmol/L | Total cholesterol D-4 (3.0 mg/kg/day i.p.): 4.25 mmol/L | Triglycerides D-4 (3.0 mg/kg/day i.p.): 1.85 mmol/L | Glucose levels (in words) (30 mg/kg/day): decrease markedly | HDL-cholesterol levels (in words) (30 mg/kg/day): markedly increased | Total cholesterol levels (in words) (30 mg/kg/day): slightly higher | Triglyceride levels (in words) (30 mg/kg/day): decreasing significantly | Overall extent of the effect on blood levels of Glucose [1]: −62.5% | Overall extent of the effect on blood levels of HDL-cholesterol [1]: +18.4% | Overall extent of the effect on blood levels of Total cholesterol [1]: −16.6% | Overall extent of the effect on blood levels of Triglycerides [1]: −21.5% | Glucose Diff. D o − D 12 (30 mg/kg/day i.p.): −12.3% | HDL-cholesterol Diff. D o − D 12 (30 mg/kg/day i.p.): +14.6% | Total cholesterol Diff. D o − D 12 (30 mg/kg/day i.p.): +7.8% | Triglycerides Diff. D o − D 12 (30 mg/kg/day i.p.): +0.6% | Glucose D o (30 mg/kg/day i.p.): 335 mg/dL | HDL-cholesterol D o (30 mg/kg/day i.p.): 2.94 mmol/L | Total cholesterol D o (30 mg/kg/day i.p.): 4.21 mmol/L | Triglycerides D o (30 mg/kg/day i.p.): 1.7 mmol/L | Glucose D 12 (30 mg/kg/day i.p.): 206 mg/dL | HDL-cholesterol D 12 (30 mg/kg/day i.p.): 3.37 mmol/L | Total cholesterol D 12 (30 mg/kg/day i.p.): 4.54 mmol/L | Triglycerides D 12 (30 mg/kg/day i.p.): 1.71 mmol/L | Glucose D-4 (30 mg/kg/day i.p.): 174 mg/dL | HDL-cholesterol D-4 (30 mg/kg/day i.p.): 2.46 mmol/L | Total cholesterol D-4 (30 mg/kg/day i.p.): 4.37 mmol/L | Triglycerides D-4 (30 mg/kg/day i.p.): 2.13 mmol/L
